{"source": "patent US4720543A", "about": "“1a-7-substituted derivatives of mitomycin and uses thereof” (priority 1985, dated 1988)", "key": {"Listeria Sp.": {"system": "Listeria Sp.", "assay": "antibiotic activity, bacterial growth inhibition in culture", "type": "cell-based", "protocol": "(§1) Bacteria were grown in a standard growth culture at pH 7.2. After the cultures were incubated at 37° C. overnight and diluted into fresh medium, controls and the test antibiotics dissolved in 0.3% hydroxy propylcellulose (HPC) were added at various concentrations and then reincubated overnight. The measure of antibiotic activity was determined by the amount of bacterial growth inhibition as shown by measurement of the optical density at 660 nm."}, "WP2s (E. coli)": {"system": "WP2s (E. coli)", "assay": "antibiotic activity, bacterial growth inhibition in culture", "type": "cell-based", "protocol": "as §1"}, "Staphylococcus Sp.": {"system": "Staphylococcus Sp.", "assay": "antibiotic activity, bacterial growth inhibition in culture", "type": "cell-based", "protocol": "as §1"}, "TA100 (Salmonella Sp.)": {"system": "TA100 (Salmonella Sp.)", "assay": "antibiotic activity, bacterial growth inhibition in culture", "type": "cell-based", "protocol": "as §1"}, "E. coli WP2s (λ)": {"system": "E. coli WP2s (λ)", "conditions": "for Induction of prophage, PFU/DISH: 24 hours"}}, "note": "Read-outs that look alike come from different tables or passages of the source."}
{"smiles": "CO[C@@]12[C@H](COC(N)=O)C3=C(C(=O)C(C)=C(N)C3=O)N1C[C@H]1[C@@H]2N1C(=S)N[C@@H]1O[C@H](COC(C)=O)[C@@H](OC(C)=O)[C@H](OC(C)=O)[C@H]1NC(C)=O", "note": "[M-TAG, 1a(N-2-acetamido-3,4,6-tri-O-acetyl-2-deoxy-D-glucopyranosylthiocarbamoyl)-mitomycin C]", "values": [{"measurement": "optical density at 660 nm (figure in parentheses)", "setting": "Listeria Sp.; 0.04 mcg/ml", "result": 0.59}, {"measurement": "optical density at 660 nm (figure in parentheses)", "setting": "Listeria Sp.; 0.4 mcg/ml", "result": 0.59}, {"measurement": "optical density at 660 nm (figure in parentheses)", "setting": "Listeria Sp.; 4.0 mcg/ml", "result": 0.59}, {"measurement": "optical density at 660 nm (figure in parentheses)", "setting": "Listeria Sp.; 40 mcg/ml", "result": 0.036}, {"measurement": "optical density at 660 nm (figure in parentheses)", "setting": "Listeria Sp.; 400 mcg/ml", "result": 0.00}, {"measurement": "inhibition at 0.04 µg/mL", "setting": "Listeria Sp.; Listeria, 0.04 mcg/ml, 37° C. overnight, read-out: amount of bacterial growth inhibition (first figure)", "result": 26, "unit": "%"}, {"measurement": "inhibition at 0.4 µg/mL", "setting": "Listeria Sp.; Listeria, 0.4 mcg/ml, 37° C. overnight, read-out: amount of bacterial growth inhibition (first figure)", "result": 26, "unit": "%"}, {"measurement": "inhibition at 4 µg/mL", "setting": "Listeria Sp.; Listeria, 4.0 mcg/ml, 37° C. overnight, read-out: amount of bacterial growth inhibition (first figure)", "result": 26, "unit": "%"}, {"measurement": "inhibition at 40 µg/mL", "setting": "Listeria Sp.; Listeria, 40 mcg/ml, 37° C. overnight, read-out: amount of bacterial growth inhibition (first figure)", "result": 92, "unit": "%"}, {"measurement": "inhibition at 400 µg/mL", "setting": "Listeria Sp.; Listeria, 400 mcg/ml, 37° C. overnight, read-out: amount of bacterial growth inhibition (first figure)", "result": 100, "unit": "%"}, {"measurement": "optical density at 660 nm (figure in parentheses)", "setting": "WP2s (E. coli); 0.04 mcg/ml", "result": 0.41}, {"measurement": "optical density at 660 nm (figure in parentheses)", "setting": "WP2s (E. coli); 0.4 mcg/ml", "result": 0.29}, {"measurement": "optical density at 660 nm (figure in parentheses)", "setting": "WP2s (E. coli); 4.0 mcg/ml", "result": 0.30}, {"measurement": "optical density at 660 nm (figure in parentheses)", "setting": "WP2s (E. coli); 40 mcg/ml", "result": 0.12}, {"measurement": "optical density at 660 nm (figure in parentheses)", "setting": "WP2s (E. coli); 400 mcg/ml", "result": 0.009}, {"measurement": "inhibition at 0.04 µg/mL", "setting": "WP2s (E. coli); Escherichia coli, 0.04 mcg/ml, 37° C. overnight, read-out: amount of bacterial growth inhibition (first figure)", "result": 39, "unit": "%"}, {"measurement": "inhibition at 0.4 µg/mL", "setting": "WP2s (E. coli); Escherichia coli, 0.4 mcg/ml, 37° C. overnight, read-out: amount of bacterial growth inhibition (first figure)", "result": 51, "unit": "%"}, {"measurement": "inhibition at 4 µg/mL", "setting": "WP2s (E. coli); Escherichia coli, 4.0 mcg/ml, 37° C. overnight, read-out: amount of bacterial growth inhibition (first figure)", "result": 50, "unit": "%"}, {"measurement": "inhibition at 40 µg/mL", "setting": "WP2s (E. coli); Escherichia coli, 40 mcg/ml, 37° C. overnight, read-out: amount of bacterial growth inhibition (first figure)", "result": 76, "unit": "%"}, {"measurement": "inhibition at 400 µg/mL", "setting": "WP2s (E. coli); Escherichia coli, 400 mcg/ml, 37° C. overnight, read-out: amount of bacterial growth inhibition (first figure)", "result": 98, "unit": "%"}, {"measurement": "optical density at 660 nm (figure in parentheses)", "setting": "Staphylococcus Sp.; 0.04 mcg/ml", "result": 0.52}, {"measurement": "optical density at 660 nm (figure in parentheses)", "setting": "Staphylococcus Sp.; 0.4 mcg/ml", "result": 0.02}, {"measurement": "optical density at 660 nm (figure in parentheses)", "setting": "Staphylococcus Sp.; 4.0 mcg/ml", "result": 0.018}, {"measurement": "optical density at 660 nm (figure in parentheses)", "setting": "Staphylococcus Sp.; 40 mcg/ml", "result": 0.03}, {"measurement": "optical density at 660 nm (figure in parentheses)", "setting": "Staphylococcus Sp.; 400 mcg/ml", "result": 0.00}, {"measurement": "inhibition at 0.04 µg/mL", "setting": "Staphylococcus Sp.; Staphylococcus, 0.04 mcg/ml, 37° C. overnight, read-out: amount of bacterial growth inhibition (first figure)", "result": 30, "unit": "%"}, {"measurement": "inhibition at 0.4 µg/mL", "setting": "Staphylococcus Sp.; Staphylococcus, 0.4 mcg/ml, 37° C. overnight, read-out: amount of bacterial growth inhibition (first figure)", "result": 95, "unit": "%"}, {"measurement": "inhibition at 4 µg/mL", "setting": "Staphylococcus Sp.; Staphylococcus, 4.0 mcg/ml, 37° C. overnight, read-out: amount of bacterial growth inhibition (first figure)", "result": 96, "unit": "%"}, {"measurement": "inhibition at 40 µg/mL", "setting": "Staphylococcus Sp.; Staphylococcus, 40 mcg/ml, 37° C. overnight, read-out: amount of bacterial growth inhibition (first figure)", "result": 94, "unit": "%"}, {"measurement": "inhibition at 400 µg/mL", "setting": "Staphylococcus Sp.; Staphylococcus, 400 mcg/ml, 37° C. overnight, read-out: amount of bacterial growth inhibition (first figure)", "result": 100, "unit": "%"}, {"measurement": "optical density at 660 nm (figure in parentheses)", "setting": "TA100 (Salmonella Sp.); 0.04 mcg/ml", "result": 0.34}, {"measurement": "optical density at 660 nm (figure in parentheses)", "setting": "TA100 (Salmonella Sp.); 0.4 mcg/ml", "result": 0.11}, {"measurement": "optical density at 660 nm (figure in parentheses)", "setting": "TA100 (Salmonella Sp.); 4.0 mcg/ml", "result": 0.97}, {"measurement": "optical density at 660 nm (figure in parentheses)", "setting": "TA100 (Salmonella Sp.); 40 mcg/ml", "result": 0.97}, {"measurement": "optical density at 660 nm (figure in parentheses)", "setting": "TA100 (Salmonella Sp.); 400 mcg/ml", "result": 0.02}, {"measurement": "inhibition at 0.04 µg/mL", "setting": "TA100 (Salmonella Sp.); Salmonella, 0.04 mcg/ml, 37° C. overnight, read-out: amount of bacterial growth inhibition (first figure)", "result": 46, "unit": "%"}, {"measurement": "inhibition at 0.4 µg/mL", "setting": "TA100 (Salmonella Sp.); Salmonella, 0.4 mcg/ml, 37° C. overnight, read-out: amount of bacterial growth inhibition (first figure)", "result": 78, "unit": "%"}, {"measurement": "inhibition at 4 µg/mL", "setting": "TA100 (Salmonella Sp.); Salmonella, 4.0 mcg/ml, 37° C. overnight, read-out: amount of bacterial growth inhibition (first figure)", "result": 80, "unit": "%"}, {"measurement": "inhibition at 40 µg/mL", "setting": "TA100 (Salmonella Sp.); Salmonella, 40 mcg/ml, 37° C. overnight, read-out: amount of bacterial growth inhibition (first figure)", "result": 80, "unit": "%"}, {"measurement": "inhibition at 400 µg/mL", "setting": "TA100 (Salmonella Sp.); Salmonella, 400 mcg/ml, 37° C. overnight, read-out: amount of bacterial growth inhibition (first figure)", "result": 95, "unit": "%"}, {"measurement": "maximum increase of phage titer over control", "setting": "E. coli WP2s (λ)", "result": "50-100%"}, {"measurement": "Induction of prophage, PFU/DISH", "setting": "E. coli WP2s (λ); 0.005 ug/ml", "result": 148.5, "unit": "PFU/DISH"}, {"measurement": "Induction of prophage, PFU/DISH", "setting": "E. coli WP2s (λ); 0.020 ug/ml", "result": 152.5, "unit": "PFU/DISH"}, {"measurement": "Induction of prophage, PFU/DISH", "setting": "E. coli WP2s (λ); 0.03125 ug/ml", "result": 591.5, "unit": "PFU/DISH"}, {"measurement": "Induction of prophage, PFU/DISH", "setting": "E. coli WP2s (λ); 0.125 ug/ml", "result": 799.5, "unit": "PFU/DISH"}, {"measurement": "Induction of prophage, PFU/DISH", "setting": "E. coli WP2s (λ); 0.500 ug/ml", "result": 2535.0, "unit": "PFU/DISH"}, {"measurement": "Induction of prophage, PFU/DISH", "setting": "E. coli WP2s (λ); 2.000 ug/ml", "result": 5395.0, "unit": "PFU/DISH"}, {"measurement": "Induction of prophage, PFU/DISH", "setting": "E. coli WP2s (λ); 3.125 ug/ml", "result": 3516.5, "unit": "PFU/DISH"}, {"measurement": "Induction of prophage, PFU/DISH", "setting": "E. coli WP2s (λ); 12.500 ug/ml", "result": 461.5, "unit": "PFU/DISH"}, {"measurement": "Induction of prophage, PFU/DISH", "setting": "E. coli WP2s (λ); 50.000 ug/ml", "result": 169.0, "unit": "PFU/DISH"}, {"measurement": "Induction of prophage, PFU/DISH", "setting": "E. coli WP2s (λ); 200.000 ug/ml", "result": 14.5, "unit": "PFU/DISH"}]}
